Results published in publication PMC11231114 (EJNMMI Research, 2024).
“And” between values parts separate entries of the source, which are not always exact repeats. Identical values can stand only once.

Test: Dosimetry: human absorbed dose extrapolated from rat biodistribution (OLINDA/EXM)
Conditions: human estimate extrapolated from rats
From the text: The pharmacokinetics data from ex vivo biodistribution studies in rats were extrapolated to humans using the simplest allometric scaling model to estimate an effective dose in mSv/MBq. The dose calculation was done using computer software for internal dose assessment OLINDA/EXM® (Version 1.1, copyright Vanderbilt University, 2007).
This work estimated the human absorbed radiation dose based on a detailed description of activity organ distribution data for normal rats. […] Additionally, the obtained theoretical values for examined cardiotracers were compared with [^18F]flurpiridaz absorbed dose calculated in exercise stress subjects in humans (Table 6).

CN(C)c1ccc2cc3ccc(N(C)C)cc3[n+](CC[18F])c2c1 [[^18F]SYN2]
Absorbed dose per administrated activity, Adrenals: 8.06E-03 mSv/MBq
Absorbed dose per administrated activity, Brain: 2.84E-03 mSv/MBq
Absorbed dose per administrated activity, Breasts: 2.93E-03 mSv/MBq
Absorbed dose per administrated activity, Gallbladder Wall: 8.01E-03 mSv/MBq
Absorbed dose per administrated activity, Heart Wall: 0.0415 mSv/MBq and 0.042 mSv/MBq and 4.15E-02 mSv/MBq
Absorbed dose per administrated activity, Kidneys: 0.0704 mSv/MBq and 0.070 mSv/MBq and 7.04E-02 mSv/MBq
Absorbed dose per administrated activity, Liver: 1.17E-02 mSv/MBq
Absorbed dose per administrated activity, Lower Large Intestine Wall: 1.18E-02 mSv/MBq
Absorbed dose per administrated activity, Lungs: 2.16E-02 mSv/MBq
Absorbed dose per administrated activity, Muscle: 1.03E-02 mSv/MBq
Absorbed dose per administrated activity, Osteogenic Cells: 4.02E-03 mSv/MBq
Absorbed dose per administrated activity, Ovaries: 7.10E-03 mSv/MBq
Absorbed dose per administrated activity, Pancreas: 0.0285 mSv/MBq and 2.85E-02 mSv/MBq
Absorbed dose per administrated activity, Red Marrow: 4.77E-03 mSv/MBq
Absorbed dose per administrated activity, Skin: 2.65E-03 mSv/MBq
Absorbed dose per administrated activity, Small Intestine: 1.84E-02 mSv/MBq
Absorbed dose per administrated activity, Spleen: 2.13E-02 mSv/MBq
Absorbed dose per administrated activity, Stomach Wall: 1.19E-02 mSv/MBq
Absorbed dose per administrated activity, Testes: 4.97E-03 mSv/MBq
Absorbed dose per administrated activity, Thymus: 5.48E-03 mSv/MBq
Absorbed dose per administrated activity, Thyroid: 2.49E-02 mSv/MBq
Absorbed dose per administrated activity, Total Body: 7.67E-03 mSv/MBq
Absorbed dose per administrated activity, Upper Large Intestine Wall: 2.01E-02 mSv/MBq
Absorbed dose per administrated activity, Urinary Bladder Wall: 5.29E-03 mSv/MBq
Absorbed dose per administrated activity, Uterus: 6.27E-03 mSv/MBq
Effective Dose Equivalent: 1.71E-02 mSv/MBq
Effective dose: 0.0109 mSv/MBq and 1.09E-02 mSv/MBq
